Results reported in patent US20070155772A1, “Use of genetic polymorphisms that associate with efficacy of treatment of inflammatory disease” (priority 2003, published 2007).
Several values for one entry are separate records, joined by “and”; a condition that tells them apart may be missing. Equal values may be shown once.

Legend:
[1] = system: pediatric subjects with moderate atopic dermatitis; assay: Phase IIIb trial, efficacy by Investigator global assessment (IGA) score on day 43; format: in vivo, human; details: for Efficacy (IGA): number of patients that experienced efficacy / Efficacy (IGA): percent of patients that experienced efficacy: IGA score of 0 or 1 on day 43
Description: The genetic locus was identified in a Phase IIIb trial that was designed as a head to head comparison of pimecrolimus cream 1% and tacrolimus ointment 0.03%. The six-week investigator-blinded trial of pediatric subjects with moderate atopic dermatitis explored the incidence of local application site reactions induced by the two topical macrolactams, as well as their efficacy, safety and cosmetic acceptability. Blood samples for pharmacogenetic analysis were collected from consenting participants in the clinical trial, to define a genetic basis for response to either treatment. Statistical analysis. Investigator global assessment (IGA) scores were used as the primary marker of efficacy in the pharmacogenetic studies. IGA scores at the end of the Investigator Blinded phase of the trial (Day 43) were used as the main time-point for comparison. Last observation carried forward imputations were only required for one subject at day 43. In this case, there was no IGA score available after Day 29, and the score on this day was used in place of a day 43 IGA score. IGA scores were re-coded, as was done to assess efficacy in the trial itself. An IGA score of 0 or 1 was considered successful treatment and IGA scores of 2-5 were counted as treatment failure. The severity of pruritus was also used as a marker of efficacy. Pruritus scores were dichotomized into absence (score=0) or presence (score=1, 2 or 3) of pruritus. The fisher's exact model was employed to examine the genotype effect on each efficacy variable. All statistical analyses were done using SAS version 8.2 software.

[2] = system: pediatric subjects with moderate atopic dermatitis; assay: Phase IIIb trial, severity of pruritus score on day 43; format: in vivo, human
Description: The genetic locus was identified in a Phase IIIb trial that was designed as a head to head comparison of pimecrolimus cream 1% and tacrolimus ointment 0.03%. The six-week investigator-blinded trial of pediatric subjects with moderate atopic dermatitis explored the incidence of local application site reactions induced by the two topical macrolactams, as well as their efficacy, safety and cosmetic acceptability. Blood samples for pharmacogenetic analysis were collected from consenting participants in the clinical trial, to define a genetic basis for response to either treatment.
Statistical analysis. Investigator global assessment (IGA) scores were used as the primary marker of efficacy in the pharmacogenetic studies. IGA scores at the end of the Investigator Blinded phase of the trial (Day 43) were used as the main time-point for comparison. Last observation carried forward imputations were only required for one subject at day 43. In this case, there was no IGA score available after Day 29, and the score on this day was used in place of a day 43 IGA score. IGA scores were re-coded, as was done to assess efficacy in the trial itself. An IGA score of 0 or 1 was considered successful treatment and IGA scores of 2-5 were counted as treatment failure. The severity of pruritus was also used as a marker of efficacy. Pruritus scores were dichotomized into absence (score=0) or presence (score=1, 2 or 3) of pruritus. The fisher's exact model was employed to examine the genotype effect on each efficacy variable. All statistical analyses were done using SAS version 8.2 software.
Association between polymorphic markers and relief from pruritus. A secondary efficacy variable used in the trial was pruritus. An analysis was done to see if ASN60THR LTA and (−1031) TNF associated with this efficacy variable (assessed on day 43).

[3] = (−1031) TNF genotype CC, day 43
[4] = (−1031) TNF genotype CT, day 43
[5] = (−1031) TNF genotype TT, day 43
[6] = ASN60THR LTA genotype AA, day 43
[7] = ASN60THR LTA genotype AC, day 43
[8] = ASN60THR LTA genotype CC, day 43
[9] = all (−1031) TNF genotypes, day 43
[10] = all ASN60THR LTA genotypes, day 43
[11] = patients with a C allele (CC or CT) at (−1031) TNF, day 43

CC[C@@H]1/C=C(\C)C[C@H](C)C[C@H](OC)[C@H]2O[C@@](O)(C(=O)C(=O)N3CCCC[C@H]3C(=O)O[C@H](/C(C)=C/[C@@H]3CC[C@H](Cl)[C@H](OC)C3)[C@H](C)[C@@H](O)CC1=O)[C@H](C)C[C@@H]2OC [pimecrolimus]
No success (IGA ≧ 2), number of individuals [1, 3]: 1 | No success (IGA ≧ 2), percent [1, 3]: 100% | Success (IGA = 0 or 1), number of individuals [1, 3]: 0 (0%) | Success (IGA = 0 or 1), percent [1, 3]: 0 (0%) | No success (IGA ≧ 2), number of individuals [1, 4]: 9 | No success (IGA ≧ 2), percent [1, 4]: 100% | Success (IGA = 0 or 1), number of individuals [1, 4]: 0 | Success (IGA = 0 or 1), percent [1, 4]: 100% | No success (IGA ≧ 2), number of individuals [1, 5]: 4 | No success (IGA ≧ 2), percent [1, 5]: 33% | Success (IGA = 0 or 1), number of individuals [1, 5]: 8 | Success (IGA = 0 or 1), percent [1, 5]: 67% | No success (IGA ≧ 2), number of individuals [1, 6]: 0 (0%) | No success (IGA ≧ 2), percent [1, 6]: 0 (0%) | Success (IGA = 0 or 1), number of individuals [1, 6]: 3/3 and 3 | Success (IGA = 0 or 1), percent [1, 6]: 100% | No success (IGA ≧ 2), number of individuals [1, 7]: 6 | No success (IGA ≧ 2), percent [1, 7]: 60% | Success (IGA = 0 or 1), number of individuals [1, 7]: 4/10 and 4 | Success (IGA = 0 or 1), percent [1, 7]: 40% | No success (IGA ≧ 2), number of individuals [1, 8]: 8 | No success (IGA ≧ 2), percent [1, 8]: 89% | Success (IGA = 0 or 1), number of individuals [1, 8]: 1 | Success (IGA = 0 or 1), percent [1, 8]: 11% | No success (IGA ≧ 2), number of individuals ([1]; LTB (TWT#128095) genotype AC): 0 | No success (IGA ≧ 2), percent ([1]; LTB (TWT#128095) genotype AC): 50% | Success (IGA = 0 or 1), number of individuals ([1]; LTB (TWT#128095) genotype AC): 1 | Success (IGA = 0 or 1), percent ([1]; LTB (TWT#128095) genotype AC): 100% | No success (IGA ≧ 2), number of individuals ([1]; LTB (TWT#128095) genotype CC): 12 | No success (IGA ≧ 2), percent ([1]; LTB (TWT#128095) genotype CC): 63% | Success (IGA = 0 or 1), number of individuals ([1]; LTB (TWT#128095) genotype CC): 7 | Success (IGA = 0 or 1), percent ([1]; LTB (TWT#128095) genotype CC): 37% | Efficacy (IGA): number of patients that experienced efficacy ([1]; Pharmacogenomics samples): 8 | Efficacy (IGA): percent of patients that experienced efficacy ([1]; Pharmacogenomics samples): 36% | Efficacy (IGA): number of patients that experienced efficacy ([1]; Trial subjects): 22 | Efficacy (IGA): percent of patients that experienced efficacy ([1]; Trial subjects): 32% | No success (IGA ≧ 2), number of individuals, Total [1, 9]: 14 | Success (IGA = 0 or 1), number of individuals, Total [1, 9]: 8 | No success (IGA ≧ 2), number of individuals, Total [1, 10]: 13 | Success (IGA = 0 or 1), number of individuals, Total [1, 10]: 7 | No success (IGA ≧ 2), number of individuals, Total ([1]; all LTB (TWT#128095) genotypes): 12 | Success (IGA = 0 or 1), number of individuals, Total ([1]; all LTB (TWT#128095) genotypes): 8 | subjects that responded to treatment (IGA) [1, 11]: None and No patient | success / response rate (IGA) [1, 11]: 0% | Pruritus (day 43) score 0, percent of subjects ([2]; Pharmacogenomics samples): 10% | Pruritus (day 43) score 1, number of subjects ([2]; Pharmacogenomics samples): 14 | Pruritus (day 43) score 1, percent of subjects ([2]; Pharmacogenomics samples): 67% | Pruritus (day 43) score 2, number of subjects ([2]; Pharmacogenomics samples): 3 | Pruritus (day 43) score 2, percent of subjects ([2]; Pharmacogenomics samples): 14% | Pruritus (day 43) score 3, number of subjects ([2]; Pharmacogenomics samples): 2 | Pruritus (day 43) score 3, percent of subjects ([2]; Pharmacogenomics samples): 10% | Pruritus (day 43) score 0, number of subjects ([2]; Trial subjects): 9 | Pruritus (day 43) score 0, percent of subjects ([2]; Trial subjects): 13% | Pruritus (day 43) score 1, number of subjects ([2]; Trial subjects): 35 | Pruritus (day 43) score 1, percent of subjects ([2]; Trial subjects): 49% | Pruritus (day 43) score 2, number of subjects ([2]; Trial subjects): 15 | Pruritus (day 43) score 2, percent of subjects ([2]; Trial subjects): 21% | Pruritus (day 43) score 3, number of subjects ([2]; Trial subjects): 10 | Pruritus (day 43) score 3, percent of subjects ([2]; Trial subjects): 14%
